In paper PMC6868039, “Maltose Processing and Not β-Amylase Activity Curtails Hydrolytic Starch Degradation in the CAM Orchid Phalaenopsis” (Frontiers in Plant Science, 2019):

Molecular target: T1, PEPC (phosphoenolpyruvate carboxylase)
T1 construct: native enzyme in desalted (Sephadex G-25) crude leaf extract, not purified; phosphorylation state varies over the day
Assay: NADH oxidation at […] nm, coupled to endogenous MDH in desalted leaf extract
Format: biochemical, Phalaenopsis hybrid cultivar
Conditions: daytime leaves (mean of fluctuating values); 2.5 mM PEP, 10 mM NaHCO3, 5 mM MgCl2, pH 7.5, 25 °C; crude desalted extract

Compound: O=C(O)C[C@H](O)C(=O)O [malic acid]
- Ki: 6 ± 3 mM
